Consider four molecules from patent US20220400703A1, “FORMULATIONS FOR TREATMENT OF VIBRIO INFECTIONS” (ARIZONA BOARD OF REGENTS ON BEHALF OF THE UNIVERSITY OF …, priority 2019, published 2022).

Several values for one entry are separate records, joined by “and”; a condition that tells them apart may be missing. Equal values may be shown once. Entries after “also recorded” stand apart in the source; their conditions may differ.

Assay [1] concerns Vibrio parahaemolyticus (Strain A3). Briefly: Minimum inhibitory concentration (MIC) assay in liquid culture (OD600 and colony count). Format: cell-based. The note with it: for OD600: 24 hr; for MIC assay results: effective concentration (Example 1): Example 1, liquid culture; for MIC (Example 2): TSB+ liquid culture, OD600 and colony count, 24 h and 48 h; for Extract concentration at which bacterial count is zero / no survivors: viable colony count at 48 h on TSA+ plates. The protocol: Absorbance (OD600) and total colony count (upon plating overnight culture grown in the presence of natural extracts) were employed for screening.
(§1) VPAHPND (13-028/A3) was revived from glycerol stock kept in −80 degrees C. in Aquaculture Pathology Laboratory following a previous publication (Han et al., 2015). Briefly, 800 mL of Tryptic Soy Broth (TSB) containing 2% NaCl (TSB+) medium was prepared and autoclaved. The bacterial stock was thawed on ice and briefly vortexed before transferring 250 μl of the bacterial culture to 5 ml TSB+ in a 50 ml flask. The flask was incubated at 28 degrees C. in a shaker incubator (CORNING, Model LSE) (120 rpm) for 2 h. After the incubation, the broth was transferred into 50 ml TSB+ in a 250 ml flask before incubating at 28 degrees C. in a shaker incubator (120 rpm) for 2 h. After 2 h., the bacterial culture was mixed with 300 ml TSB and incubated for 24 h at 28 degrees C. After 24 h, the optical density (OD) of the culture was measured at 600 nm. Under these culture conditions, the OD values should exceed 2.8. The broth was diluted to 1×10^7 CFU/ml based on the OD reading. A 10-fold serial dilution of the bacterial culture was prepared and the live bacterial count upon overnight growth was determined by plating the culture on Tryptic Soy Agar (TSA) containing 2% NaCl (TSA+) plates.
Initially extracts were diluted up to 50% with diluent fish oil, then a serial dilution of extracts was prepared Concentrations of extracts range between [0.3-0.0937% (v/v)], which was prepared in TSB+ (Tryptic soy broth) medium. The culture medium TSB+ (2 ml) containing NEs was inoculated with 100 μL (approx. 1×10^7 CFU/mL) of an overnight culture of the pathogen and briefly mixed by vortexing before incubating at 28 degrees C. The OD600 values was recorded at 12, 24 and 48 h post-incubation (FIG. 9). In addition, at each time point and for each concentration of the NEs, aliquots of bacterial suspension were inoculated on TSA+plate before incubating overnight at 28 degrees C. The MIC for each NE was determined by recording OD600 values and taking bacterial count. For each NE, the MIC assay was repeated three times on different days, and the average OD600 value was taken to determine the MIC for each concentration of a corresponding NE.

The test system of assay [2] is VPAHPND (13-028/A3), AHPND-causing Vibrio parahaemolyticus. Kind of assay: Paper disk diffusion assay. The format is cell-based. Particulars: mean ± SD; for Average diameter of inhibitory zone (mm) CNE 1/16: extract concentration 1/16 (v/v); for Average diameter of inhibitory zone (mm) CNE 1/16 / Average diameter of inhibitory zone (mm) CNE ¼ / Average diameter of inhibitory zone (mm) CNE ½ / Average diameter of inhibitory zone (mm) CNE ⅛: ND: not detected, <7 mm = no antimicrobial activity; for Average diameter of inhibitory zone (mm) CNE ¼: extract concentration ¼ (v/v); for Average diameter of inhibitory zone (mm) CNE ½: extract concentration ½ (v/v), 2 μL on paper disk, TSA+, 28° C., 24 hr; for Average diameter of inhibitory zone (mm) CNE ⅛: extract concentration ⅛ (v/v). The protocol: as §1
The antibacterial activities of the NEs were tested using a paper disk diffusion assay following a previously published method with some modifications (Mith et al., 2014). Briefly, the extracts were diluted with fish oil (NE01-NE013) or DMSO (NE14 to NE18) at the following concentrations: 1:1, 1:2, 1:4, and 1:8. The VPAHPND (13-028/A3) culture lawns were created on TSA+plates by thoroughly streaking the culture over the entire surface of the plate with a cotton swab. Meanwhile, 2 μL of each concentration of the NEs was soaked on to a paper disk for 15 min before placing in the center of the bacteria inoculated TSA+plates. Fish oil and DMSO were used as controls. For each dilution of the NE two replicates were done. The plates were then incubated at 28° C. for 24 hr. The efficacy of the extract in inhibiting bacterial growth was determined by measuring the diameter of clear zones for each concentration to the nearest millimeter (mm). The diameter of the inhibitory zone <7 mm was considered as having no antimicrobial activity (Mith et al., 2014). The experiments were repeated four times for all 18 NEs, and the average was taken to calculate the diameter of the inhibitory zone.
(In general: A growth-free zone around the sample is the usual read-out of agar diffusion tests.)

Another assay concerns VPAHPND cells. Briefly: Scanning electron microscopy of NE treated VPAHPND cells. Format: cell-based, Vibrio parahaemolyticus. Particulars: sub-inhibitory concentration of extract, 24 hr incubation. The protocol: The effect of NEs on bacterial cells was determined by culturing VPAHPND in medium containing NEs and examining the cells under a scanning electron microscope (SEM). The subinhibitory concentration of extracts used in the medium was MIC. The control treatment was VPAHPND grown in the presence of fish oil. Samples were fixed by following a protocol described by Lv et al. (2011) and McQuade et al. (2012) with some modifications. Briefly, 25 μl of 8% glutaraldehyde solution (Electron Microscopy Sciences, Hatfield, Pa.) was added to 200 μl of the overnight culture of bacteria. After 40 minutes of incubation at room temperature, samples were washed three times with 1× phosphate-buffered saline (PBS, pH 7.0). Subsequently, samples were washed with water and stained with 1% osmium tetroxide (Ted Pella, Inc., Redding, Ariz.). Finally, samples were washed in water and dehydrated in a series of ethanol solutions with concentrations ranging from 30% to 90% (v/v). The slides with fixed bacterial cells were mounted, sputter-coated in gold under vacuum, and examined using a […] field emission scanning electron microscope (ANATECH, USA).

The test system of assay [3] is AHPND-causing Vibrio parahaemolyticus. Briefly: Histopathology (H&E) of hepatopancreas of shrimp from the AHPND bioassay. Format: in vivo, Penaeus vannamei. The text has this: (§2) Specific Pathogen Free shrimp (P. vannamei) (avg. weight 1-2 g) were stocked at a density of 10 shrimp/tank. In total there were two treatments and two controls: shrimp fed diet containing 20% NE05, 10% NE05, a positive and a negative control (shrimp fed diet containing fish oil). Each treatment and control had two replicates. Animals in all treatments except the negative control were subjected to an immersion challenge with V. parahaemolyticus. In the negative control tanks, sterilized TSB+ medium was added instead of bacterial suspension. Throughout the experiment, shrimps were fed corresponding diets daily at 5% of their body weight. The experiments were repeated three times. On day 6 post-feeding of the experimental diets, shrimps were challenged with V. parahaemolyticus at a dose of 10^6 CFU/ml (500 ml of V. parahaemolyticus culture grown for 24 h, OD600 of 5). After the bacterial challenge, tanks were monitored several times a day, and mortalities were recorded, and dead shrimps were removed immediately. Hepatopancreas tissue from moribund shrimp was dissected, half of the tissue was preserved in Davidson's fixative for histopathology, while the remaining half of hepatopancreas was stored at −20 degrees C. for PCR detection of V. parahaemolyticus. […] At the termination of the bioassay, average mortality for each treatment was calculated, and one-way ANOVA was performed to determine any significant difference among different treatments. A (p-value <0.05) between treatments was considered significant.
Moribund shrimp were fixed in Davidson's alcohol-formalin-acetic acid (AFA). The samples were processed, embedded in paraffin, and sectioned ([…]) following a standard protocol (Lightner, 1996). The sections were stained with hematoxylin and eosin (H&E) and examined using a light microscope for histological lesions of AHPND (Tran et al., 2013).

Assay [4] shares this test system. Kind of assay: AHPND bioassay: NE05 in diet, immersion challenge (clinical signs, survival, mortality). The format is in vivo, Penaeus vannamei. The note with it: for Percent survival: 7 days post-challenge, three independent experiments. The protocol:
The efficacy of NE05 in preventing AHPND was evaluated by using an in vivo assay. The NE05 was mixed with a commercially pelleted shrimp diet at concentrations of 20% and 10% (v/w). Commercial diets containing 20% and 10% fish oil were used as controls. The feed was prepared using a standard feed maker (CORNING, Model LSE) and dried in a chemical hood for 24 h at room temperature. The feed was coated with fish oil dried for an additional 12 h to prevent the smell and increase palatability.
Ten 37 L glass tanks were used in this study. Seawater was prepared following a SOP used in Aquaculture Pathology Laboratory. Approximately 800 g of sea salt (Marinex, Baltimore, Md.) was mixed with 30 L of tap water to get 20-25 ppt of salinity. After the marine salt was dissolved, salinity was checked using a refractometer (SPER SCIENTIFIC, Model #300011). The salinity level of the water was adjusted by adding water until the range needed for the study was reached (20-25 ppt). Throughout the experiment, the room temperature was maintained at 29±2 degrees C. using a heater. Before starting the bioassay, the tanks were held for two days without any animal to equilibrate the water temperature to that of the room. The water temperature was maintained at 29±2 degrees C. Each tank was equipped with an air pump having an air capacity of 2.5 liters/min connected to two air stones. One air stone was directly immersed into the tank, and the other one was connected to the filters. Disinfected weight was kept above each air stone. The heater was kept inside the room during the experiment.
as §2

`CC(C)=CCCC(C)=CC=O` [NE01, Citral]: in assay [1] (extract concentration 0.0983%), the OD600 came to 2.5. In assay [1] (extract concentration 0.15% (v/v)), the OD600 entry is “zero”. Moreover, the Bacterial count in assay [1] (48 h, extract concentration 0.0983% (v/v)) is 2.5×10^9 CFU/ml. In assay [1], the “MIC assay results: effective concentration (Example 1)” value (from here on “MIC assay results”) amounted to 0.015 v/v %, the “MIC (Example 2)” value was 0.15 v/v % and the “Extract concentration at which bacterial count is zero / no survivors” value is 0.15 % (v/v). Also, in assay [2], the “Average diameter of inhibitory zone (mm) CNE 1/16” value was 7.48 ± 0.42 mm, the “Average diameter of inhibitory zone (mm) CNE ¼” value is 12.53 ± 0.50 mm, the “Average diameter of inhibitory zone (mm) CNE ½” value turned out to be 17.75 ± 1.4 mm and the “Average diameter of inhibitory zone (mm) CNE ⅛” value came out at 9.36 ± 0.58 mm. The “Bacterial cell morphology under SEM” value in the assay on VPAHPND cells is on record as “a few irregular wrinkled cells but also had a lot of intact cells”.

Take `Cc1ccc(C(C)C)cc1O` [NE03, Cavacrol]: in assay [1], the “MIC assay results” value was 0.007 v/v %, the “MIC (Example 2)” value stood at 0.075 v/v % and the “Extract concentration at which bacterial count is zero / no survivors” value is 0.075 % (v/v). In assay [2], the “Average diameter of inhibitory zone (mm) CNE 1/16” value came to 8.53 ± 0.16 mm, the “Average diameter of inhibitory zone (mm) CNE ¼” value was determined as 16 ± 0.77 mm, the “Average diameter of inhibitory zone (mm) CNE ½” value is 20.51 ± 0.97 mm and the “Average diameter of inhibitory zone (mm) CNE ⅛” value is recorded as 13.53 ± 0.42 mm. For the same molecule, the “Bacterial cell morphology under SEM” value in the assay with VPAHPND cells was “non-intact lysed cells with possible leaking out of cytoplasmic constituents; also recorded: disruption of cell surface and leaking of cytoplasmic components; also recorded: affected bacterial cell wall resulting in its disruption and leaking of intracellular components”.

On to `O=C/C=C/c1ccccc1` [NE05, Trans Cinnamaldehyde], for which, in assay [1], the “MIC assay results” value is 0.002 v/v %, the “MIC (Example 2)” value was 0.02 v/v % and the “Extract concentration at which bacterial count is zero / no survivors” value is reported as 0.02 % (v/v). For the same molecule, in assay [2], the “Average diameter of inhibitory zone (mm) CNE 1/16” value was determined as 9.36 ± 0.32 mm, the “Average diameter of inhibitory zone (mm) CNE ¼” value was 18.66 ± 0.98 mm, the “Average diameter of inhibitory zone (mm) CNE ½” value stood at 26±1.8 mm and the “Average diameter of inhibitory zone (mm) CNE ⅛” value is given as 14.03 ± 0.80 mm. For the same molecule, the Histopathology of hepatopancreas result in assay [3] (NE05-10% treatment, 24 h post-challenge) is recorded as “Mild sloughing of epithelial cells in hepatopancreatic tubule”. The Histopathology of hepatopancreas result in assay [3] (NE05-10% treatment, 48 h post-infection) is given as “hallmark of AHPND infection”. Moreover, in assay [3] (NE05-20% treatment, 24 & 48 h post-challenge), the Histopathology of hepatopancreas result is “did not show any lesions that are considered pathognomonic of AHPND; also recorded: showed no lesions that are pathognomonic of AHPND”. For the same molecule, in assay [3] (diet containing NE05-10%, challenged with AHPND), the “H&E histological section of HP tissue (FIGS. 19E-19F)” value is “Terminal phase lesions displaying sloughing of necrotic HP tubule epithelial cells”. For the same molecule, in assay [3] (diet containing NE05-20%, challenged with AHPND), the “H&E histological section of HP tissue (FIGS. 19G-19H)” value is given as “Hepatopancreatic tubule appear similar to healthy animals”. Besides, in assay [4] (diet containing NE05-10%), the “Mortality by day 3” value is 85%, the “Time at which mortality began post-challenge” value is listed as 10 h and the Percent survival is reported as 15%. For the same molecule, in assay [4] (diet containing NE05-20%), the “Mortality during the first 24 h post-challenge” value was “did not show mortality”; the Percent survival is 100% and 93%. The “Mortality by day 2” value in assay [4] (diet containing NE05-20%, thereafter no mortality) is reported as 4%. The “Gross clinical signs of AHPND” value in assay [4] (shrimp fed diet containing NE05 at 10%, immersion challenge) is “appeared clinically similar to the animals fed commercial diet; also recorded: HP appeared pale and gut empty”. Besides, the “Bacterial cell morphology under SEM” value with VPAHPND cells is “extensive cell wall damage, and possible leaking out of intracellular components; also recorded: disruption of cell surface and leaking of cytoplasmic components; also recorded: affected bacterial cell wall resulting in its disruption and leaking of intracellular components”.

On to “Doxycycline Hyclate [reference compound]”, for which, in assay [2] (Doxycycline Hyclate 10 μg), the “Average diameter of inhibitory zone (mm), antibiotic reference standard” value is on record as 24.43±0.57 mm.
